The test system of experiment [1] is Eubacterium rectale and Clostridium coccoides group. The experiment in a line: Faecal fermentation in dialysis tubes, FISH with Erec482 probe. As to conditions: t = 72 h versus t = 0. The format is cell-based. The protocol:
(§1) Pooled fresh faeces obtained from 4-5 healthy adults was used to perform fermentation studies as described in Appendix I of WO 2004/000340. The experiments were performed in duplo. The faeces, diluted 1:5 into McBain and Farlane medium, was put into dialysis tubes and suspended in bottles with buffer under anaerobic conditions and was first incubated at 37° C. for 16 h for reasons of adaptation before inoculating them with the substrates according to the table below at t=0.
(§2) The test substrates were added once a day (at t=0, 24, and 48 hours). Buffer was refreshed once a day. A sample was taken at t=0 and t=72. This relatively long period was used since shifts in bacterial populations are relatively slow compared to the shifts in short chain acids formed.
(§3) The sphingosine was dissolved in ethanol (stock 10 mg/ml). 30 μl of a stock of 10 mg/ml was added to the dialysis tube.
(§4) The samples were analysed by Fluorescence In Situ Hybridisation (FISH) as described in Franks, A. H., et al., Appl. Environ. Microbiol., 1998. 64(9): p. […] Total number of bacteria was determined by DAPI staining. The ratio Firmicutes/Bacteroidetes was set at the percentage of bacteria detected by the Chis150, Clit135, Erec482 and Lab158 probe, divided by the percentage of bacteria […] by the Bac303 probe. The bacteria detected by the Erec482 group are usually the largest group of Firmicutes in the human intestine.

For a further experiment, the system named is Bifidobacteria. Put plainly: Faecal fermentation in dialysis tubes, FISH with Bifl 64 probe. It counts as cell-based. As to conditions: t = 72 h versus t = 0. The protocol:
as §1, §2, §3, §4

The values below come from US20110034407A1, “USE OF SPHINGOMYELIN AND NON-DIGESTIBLE CARBOHYDRATES FOR IMPROVING INTESTINAL MICROBIOTA” (N. V. Nutricia, priority 2007, published 2011).

Structures are written as SMILES.

For the compound `CCCCCCCCCCCCC/C=C/[C@@H](O)[C@@H](N)CO` [Number 1, D-sphingosine], the “change in Clostridia and Eubacteria, largest group of intestinal Firmicutes (in words)” value in experiment [1] is recorded as “decrease”. Also, in the experiment on Bifidobacteria, the “change in bifidobacteria (in words)” value is “increase”.
